# Assay results taken from patent US5547674A, “Pharmaceutical preparations derived from European mistletoe” (priority 1995, dated 1996).
# Tests used:
# [1] = Weight change of tumor bearing B6C3F1 mice (toxic effects); assay type: in vivo; details: i.p., 98 mg/kg, qd (1,7,14,21)
# Protocol: (§1) The amount of protein in the alkaloidal and viscotoxin fractions were also determined to be within the required fingerprint ranges. Anticancer activities of T4GEN were studied in animals bearing subcutaneous transplants of C3H Mammary adenocarcinoma 16/C. This tumor is maintained as a lung framed tumor in C3H female mice. In this example, tumors (1×10^6 cells) were transplanted (S.C.) in 18-20 g B6C3F1 hybrid female mice. On the following day, the tumor beating animals were randomized and separated into different treatment groups (10 mice per group). There were 15 animals in the control group who received only physiological saline during the treatment periods. The treatments (i.p.) were staged 48 hours after the transplants and given for a duration of 14 days (daily single injections).Animals were weighed on days 5, 9 and 14 to assess toxic effects. Tumors were measured on day 21 post transplants and the results are represented as tumor weights using formula [formula] (l=length of tumor, w=width of tumor expressed in mm).
# [2] = test system: C3H Mammary adenocarcinoma 16/C; test: Growth of subcutaneous transplants of C3H mammary adenocarcinoma 16/C in B6C3F1 female mice; assay type: in vivo; details: i.p., 98 mg/kg, qd (1,7,14,21)
# Protocol: as §1
# [3] = test system: reverse transcriptase; details: cited from earlier work
# [4] = test system: AIDS patients; details: human, in vivo; cited from earlier work
SMILES,Δ Wts (day 14) [1],Tumor Weight Inhibition [2] [%],Tumor Wts (day 21) ([2]; saline controls 0.27),Tumor Free Animals (day 93) ([2]; saline controls 1/15),inhibition of reverse transcriptase [3],toxic side effects [4]
O=c1[nH]cc(F)c(=O)[nH]1 [5FIuorouracil],+1.77 g,100,0.00,0/6,,
"Nc1ccn([C@H]2CC[C@@H](CO)O2)c(=O)n1 [ddC, 2',3'-dideoxycytidine]",,,,,inhibit reverse transcriptase,serious toxic side effects including immunosuppression
"Cc1cn([C@H]2C[C@H](N=[N+]=[N-])[C@@H](CO)O2)c(=O)[nH]c1=O [AZT, azidothymidine]",,,,,,serious toxic side effects including immunosuppression
"OC[C@@H]1CC[C@H](n2cnc3c(O)ncnc32)O1 [ddI, 2',3'-dideoxyinosine]",,,,,inhibit reverse transcriptase,serious toxic side effects including immunosuppression
